# Source: US20170081338A1, “SUBSTITUTED HETEROARYL COMPOUNDS AND METHODS OF USE” (Sunshine Lake Pharma Co., Ltd., priority 2015, published 2017)
# Assays:
# [1] = Pharmacokinetics after intravenous and oral administration in rats; type: in vivo; conditions: for Clearance (CL) after iv dosing / AUC(0-t) / half-life / Vd: dose 1 mg/kg, iv dosing; for F: oral bioavailability; for AUC(0-t) / half-life / Vd: rat, plasma; for Vd: read-out: Vss
# Procedure, shortened: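 Compounds dosed IV at 0.5, 1 or 2 mg/kg and orally at 0.5, 1, 5 or 10 mg/kg in rats, as solution, suspension or capsule formulations. Serial blood sampled out to 24 h and plasma stored frozen. Plasma levels quantified by LC/MS/MS in ESI MRM mode.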
# Aurora-B (h) = molecular target: T1, Aurora-B (h) (Homo sapiens, UniProt Q96GD4); assay: Aurora-B (h) kinase assay; type: biochemical
# T1 construct: purchased Millipore UK Ltd (contract assay service)
# Experimental: Kinase assays can be performed by measurement of incorporation of γ-^33P ATP into immobilized myelin basic protein (MBP). High binding white 384 well plates (Greiner) are coated with MBP (Sigma #M-1891) by incubation of 60 μL/well of 20 μg/mL MBP in Tris-buffered saline (TBS; 50 mM Tris pH 8.0, 138 mM NaCl, 2.7 mM KCl) for 24 h at 4° C. Plates are washed 3× with 100 μL TBS. Kinase reactions are carried out in a total volume of 34 μL in kinase buffer (according to the need to make, for example, 5 mM Hepes pH 7.6, 15 mM NaCl, 0.01% bovine gamma globulin (Sigma #1-5506), 10 mM MgCl2, 1 mM DTT, 0.02% TritonX-100). Compound dilutions are performed in DMSO and added to assay wells to a final DMSO concentration of 1%. Each data point is measured in duplicate, and at least two duplicate assays are performed for each individual compound determination. Enzyme is added to final concentrations of 10 nM or 20 nM, for example. A mixture of unlabeled ATP and γ-^33P ATP is added to start the reaction (2×10^6 cpm of γ-^33P ATP per well (3000 Ci/mmole) and 10 μM unlabeled ATP, typically. The reactions are carried out for 1 h at room temperature with shaking. Plates are washed 7× with TBS, followed by the addition of 50 µL/well scintillation fluid (Wallac). Plates are read using a Wallac Trilux counter. This is only one format of such assays; various other formats are possible, as known to one skilled in the art.
# The above assay procedure can be used to determine the IC50 for inhibition and/or the inhibition constant, Ki. The IC50 is defined as the concentration of compound required to reduce the enzyme activity by 50% under the condition of the assay. The IC50 value is estimated by preparing a 10 point curve using a 1/2 log dilution series (for example, a typical curve may be prepared using the following compound concentrations: 3 μM, 1 μM, 0.3 μM, 0.1 μM, 0.03 μM, 0.01 μM, 0.003 μM, 0.001 μM, 0.0003 μM and 0 μM).
# Aurora-B (h) is incubated with 8 mM MOPS pH 7.0, 0.2 mM EDTA, 30 μM AKRRRLSSLRA, 10 mM MgAcetate and [γ-^33PATP] (specific activity approx. 500 cpm/pmol, concentration as required). The reaction is initiated by the addition of the MgATP mix. After incubation for 40 minutes at room temperature, the reaction is stopped by the addition of a 3% phosphoric acid solution. 10 μL of the reaction is then spotted onto a P30 filtermat and washed three times for 5 minutes in 75 mM phosphoric acid and once in methanol prior to drying and scintillation counting.
# The kinase assays described herein were performed at Millipore UK Ltd, Dundee Technology Park, Dundee DD2 1SW, UK.
# T1 sequence (Q96GD4 whole entry): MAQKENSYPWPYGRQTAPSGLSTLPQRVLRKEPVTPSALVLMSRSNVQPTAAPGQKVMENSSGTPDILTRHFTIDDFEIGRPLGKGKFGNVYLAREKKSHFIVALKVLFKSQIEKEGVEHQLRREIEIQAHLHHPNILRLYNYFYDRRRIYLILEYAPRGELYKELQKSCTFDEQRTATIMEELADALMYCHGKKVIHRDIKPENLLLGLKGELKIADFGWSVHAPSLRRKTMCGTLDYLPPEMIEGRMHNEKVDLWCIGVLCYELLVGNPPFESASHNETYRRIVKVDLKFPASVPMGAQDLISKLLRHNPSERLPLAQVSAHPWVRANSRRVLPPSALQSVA
Clearance (CL) after iv dosing [1] [mL/min/kg],F [1] [%],AUC(0-t) [1] [ng·h/mL],half-life [1] [min],Vd [1] [L/kg],IC50 (Aurora-B (h)) [µM],SMILES
37.8,62.7,442,35.4,0.75,0.011,"Cn1cc(Nc2ncc(Cl)c(N[C@@H]3COC4C3OC[C@@H]4NS(=O)(=O)CC(C)(C)C#N)n2)cn1 (stereo partly drawn) [Ex. 26, N-((3S,6R)-6-((5-chloro-2-((1-methyl-1H-pyrazol-4-yl)amino)pyrimidin-4-yl)amino)hexahydrofuro[3,2-b]furan-3-yl)-2-cyano-2-methylpropane-1-sulfonamide]"
30.3,84.2,547,18,0.83,0.024,"Cn1cc(Nc2ncc(Cl)c(N[C@@H]3COC4C3OC[C@@H]4NS(=O)(=O)CC3CC3)n2)cn1 (stereo partly drawn) [Ex. 25, N-((3S,6R)-6-((5-chloro-2-((1-methyl-1H-pyrazol-4-yl)amino)pyrimidin-4-yl)amino)hexahydrofuro[3,2-b]furan-3-yl)-1-cyclopropylmethanesulfonamide]"
18.3,101.3,908,69,0.63,0.029,"CC(C)CS(=O)(=O)N[C@H]1COC2C1OC[C@H]2Nc1nc(Nc2cnn(C)c2)ncc1Cl (stereo partly drawn) [Ex. 2, N-((3S,6R)-6-((5-chloro-2-((1-methyl-1H-pyrazol-4-yl)amino)pyrimidin-4-yl)amino)hexahydrofuro[3,2-b]furan-3-yl)-2-methylpropane-1-sulfonamide]"
28.8,66.1,581,62.4,0.85,0.008,"Cn1cc(Nc2ncc(Cl)c(N[C@@H]3COC4C3OC[C@@H]4NS(=O)(=O)CC(F)(F)F)n2)cn1 (stereo partly drawn) [Ex. 27, N-((3S,6R)-6-((5-chloro-2-((1-methyl-1H-pyrazol-4-yl)amino)pyrimidin-4-yl)amino)hexahydrofuro[3,2-b]furan-3-yl)-2,2,2-trifluoroethanesulfonamide]"
